Measured values: patent publication US20180256561A1, “Pharmaceutical Combination” (GLAXOSMITHKLINE INTELLECTUAL PROPERTY DEVELOPMENT LIMITED, priority 2015, published 2018)
Read-outs that look alike come from different tables or passages of the source.

Key:
subjects with COPD [1] = conditions: 28-day study; cited from earlier work
subjects with COPD [2] = conditions: 400 mcg and 1200 mcg once daily, 14 days; cited from earlier work
[3] = system: subjects with persistent uncontrolled asthma; assay: Randomised, double-blind, placebo-controlled parallel group study of fluticasone furoate in subjects with persistent uncontrolled asthma (8 weeks); assay type: in vivo, human
Experimental: In one such study, the safety and efficacy of four doses of fluticasone furoate in subjects with persistent uncontrolled asthma were evaluated. In this study, which was a randomised, double-blind, placebo-controlled, parallel group study, 598 patients received one of six treatments: fluticasone furoate (25, 50, 100 or 200 mcg) once daily, fluticasone propionate 100 mcg twice daily or placebo for 8 weeks. The primary endpoint was change from baseline in trough (pre-dose) forced expiratory volume in 1 second (FEV1) at Week 8. […] This study supports the use of fluticasone furoate (100 or 200 mcg once-daily) for the treatment of persistent uncontrolled asthma.

SMILES	tolerability (subjects with COPD [1])	tolerability (subjects with COPD [2])	increase in trough FEV1 from baseline at Week 8 relative to placebo ([3]; 100 mcg once daily) [mL]	increase in trough FEV1 from baseline at Week 8 relative to placebo ([3]; 200 mcg once daily) [mL]
COc1cc(NC(=O)CCN2CCC(OC(=O)Nc3ccccc3-c3ccccc3)CC2)c(Cl)cc1CNC[C@H](O)c1ccc(O)c2[nH]c(=O)ccc12 [Compound 1, biphenyl-2-ylcarbamic acid 1-[2-(2-chloro-4-{[(R)-2-hydroxy-2-(8-hydroxy-2-oxo-1,2-dihydroquinolin-5-yl)ethylamino]methyl}-5-methoxyphenylcarbamoyl)ethyl]piperidin-4-yl ester]	well tolerated	well tolerated		
C[C@@H]1C[C@H]2[C@@H]3C[C@H](F)C4=CC(=O)C=C[C@]4(C)[C@@]3(F)[C@@H](O)C[C@]2(C)[C@@]1(OC(=O)c1ccco1)C(=O)SCF [Compound 2, 6α,9α-difluoro-17α-[(2-furanylcarbonyl)oxy]-11β-hydroxy-16α-methyl-3-oxo-androsta-1,4-diene-17β-carbothioic acid S-fluoromethyl ester]			> 200	> 200
